Key:
Assay type in all cases: in vivo, human
patients with PH-HFpEF = assay: Serum BNP or NT-proBNP levels, I.V. to oral levosimendan transition study
Protocol: Methods: Patients with PH-HFpEF who were in the open label extension study of the HELP Trial for more than 18 months volunteered to enroll in this transition protocol. Patients were initiated with 1 mg/day of oral levosimendan 5-7 days after the last IV levosimendan infusion. The oral dose was increased every 2 weeks by 1 mg/day to a maximum of 4 mg/day over an 8 week period. The highest daily dose was determined by the investigator based on clinical assessments of symptoms and side effects. The primary safety endpoints were change in resting heart rate and blood pressure from baseline to final study visit and all other adverse events. Secondary efficacy endpoints included change in six-minute walk distance (6MWD), serum brain natriuretic peptide (BNP) or NT-proBNP levels, and quality of life as assessed by Kansas City Cardiomyopathy Questionnaire clinical summary score (KCCQ-CS) and overall summary score (KCCQ-OS) from baseline to final study visit. All comparisons were the baseline and at week 6-8 measurements at the highest daily dose of levosimendan.
• Change in six-minute walk distance (6MWD) from baseline to final study visit • Change in serum brain natriuretic peptide (BNP) or NT-proBNP levels from baseline to final study visit • Change in quality of life as assessed by Kansas City Cardiomyopathy Questionnaire clinical summary score (KCCQ-CS) and overall summary score (KCCQ-OS) from baseline to final study visit
All comparisons were the baseline and at week 6-8 measurements at the highest daily dose of levosimendan.

[1] = test system: Patient 019-002 with PH-HFpEF; assay: HELP Study 24-hour open label lead-in infusion, rest and exercise right heart catheterization, Patient 019-002
Protocol: FIG. 3: Pulmonary Capillary Wedge Pressure (PCWP) of Patient […] of HELP Study.
During the HELP Study, as described in PCT International Application Publication No. WO 2021/126884, the entire contents of which are incorporated by reference, Patient 019-002 was administered empagliflozin shortly after beginning levosimendan therapy.
Specifically, Patient 019-002 had established PH-HFpEF and was initially enrolled into the HELP Trial. The diagnosis of PH-HFpEF was confirmed by rest and exercise right heart catheterization. […] The PCWP of 35 mmHg at rest increased with exercise to 55 mmHg at baseline. […] Thus, levosimendan produced a 40% fall in resting PCWP and a 33% fall in exercise PCWP. In addition, at baseline the CVP was 18 mmHg and increased to 30 mmHg with exercise. Following the 24 hours of i.v. levosimendan the CVP fell to 12 mmHg at rest and to 21 mmHg with exercise. Thus, levosimendan produced a 33% fall in resting CVP, and a 30% fall in CVP with exercise. Accordingly, the response of Patient 019-002 to levosimendan treatment was typical of other patients in the study in terms of improvements to their hemodynamic profile (FIG. 3).

[2] = test system: subjects with pulmonary hypertension with heart failure and preserved ejection fraction; assay: TNX-LVO-05 safety review: treatment emergent adverse events
Text: This is the third safety review for Study Protocol No. TNX-LVO-05. This review a) summarizes treatment emergent adverse events (TEAEs), treatment emergent serious adverse events (TESAEs), discontinuations due to TEAEs, and b) provides an overall assessment of safety data.
As of 4 Nov. 2020, 36 subjects have been enrolled in this open-label study with levosimendan and 18 (−5; this number presents change versus previous Safety Review) are still active. Seven subjects (+3) withdrew due to AE, and eight (+2) subjects withdrew consent. One subject was withdrawn by investigator decision.

[3] = 24 hours of i.v. levosimendan vs baseline

Q: With `C[C@@H]1CC(=O)NN=C1c1ccc(NN=C(C#N)C#N)cc1` [levosimendan] as the compound, how does the “change in NT-proBNP” value (patients with PH-HFpEF; n=7, baseline to final study visit, oral levosimendan) read?
A: −239.4 (SD 548.1) pg/dl

Q: What about the “change in BNP” value (patients with PH-HFpEF; n=8, baseline to final study visit, oral levosimendan) of the same compound?
A: −133.3 (SD 136.6) pg/dl

Q: What about the “improvement in BNP/NT-ProBNP biomarker measurements” value (patients with PH-HFpEF; oral levosimendan compared to weekly I.V. infusion) of the same compound?
A: 22%

Q: What about the “fall in CVP with exercise” value [1, 3] of the same compound?
A: 30%

Q: What about the “fall in exercise PCWP” value [1, 3] of the same compound?
A: 33%

Q: And the “fall in resting CVP” value [1, 3]?
A: 33%

Q: What about the “fall in resting PCWP” value [1, 3] of the same compound?
A: 40%

Q: What about the CVP at rest ([1]; following 24 hours of i.v. levosimendan (baseline 18 mmHg)) of the same compound?
A: 12 mmHg

Q: What about the CVP with exercise ([1]; following 24 hours of i.v. levosimendan (baseline 30 mmHg)) of the same compound?
A: 21 mmHg

Q: And the PCWP at rest ([1]; following 24 hours of i.v. levosimendan (baseline 35 mmHg))?
A: 21 mmHg

Q: What about the PCWP with exercise ([1]; following 24 hours of i.v. levosimendan (baseline 55 mmHg)) of the same compound?
A: 37 mmHg

Q: What about the “pulmonary capillary wedge pressure (PCWP) after levosimendan administration (FIG. 3)” value ([1]; single 24-hour open label lead-in infusion) of the same compound?
A: decrease

Q: And the TEAE arthralgia ([2]; of 36 enrolled)?
A: 3 subjects

Q: What about the TEAE asthenia ([2]; of 36 enrolled) of the same compound?
A: 3 subjects

Q: And the TEAE back pain ([2]; of 36 enrolled)?
A: 3 subjects

Q: What about the TEAE cardiac failure ([2]; of 36 enrolled) of the same compound?
A: 6 subjects

Q: And the TEAE dermatitis ([2]; of 36 enrolled)?
A: 3 subjects

Q: What about the “TEAE device infusion issues” value ([2]; of 36 enrolled) of the same compound?
A: 3 subjects

Q: What about the TEAE dizziness ([2]; of 36 enrolled) of the same compound?
A: 8 subjects

Q: And the TEAE dyspnea ([2]; of 36 enrolled)?
A: 8 subjects

Q: What about the TEAE fluid overload ([2]; of 36 enrolled) of the same compound?
A: 3 subjects

Q: And the TEAE gout ([2]; of 36 enrolled)?
A: 3 subjects

Q: What about the TEAE headache ([2]; of 36 enrolled) of the same compound?
A: 5 subjects

Q: And the TEAE hemoptysis ([2]; of 36 enrolled)?
A: 3 subjects

Q: And the TEAE hypokalemia ([2]; of 36 enrolled)?
A: 7 subjects

Q: And the TEAE palpitations ([2]; of 36 enrolled)?
A: 4 subjects

Q: And the TEAE pneumonia ([2]; of 36 enrolled)?
A: 3 subjects

Q: What about the “TEAE upper respiratory tract infection” value ([2]; of 36 enrolled) of the same compound?
A: 3 subjects

Q: And the “TEAE urinary tract infection” value ([2]; of 36 enrolled)?
A: 3 subjects

Q: And the TEAE ventricular extrasystoles ([2]; of 36 enrolled)?
A: 3 subjects

Q: What about the TEAE weight increased ([2]; of 36 enrolled) of the same compound?
A: 3 subjects

Q: What about the “drug-related TEAE device infusion issue” value ([2]; of 36 enrolled) of the same compound?
A: 3 subjects

Q: What about the “drug-related TEAE headache” value ([2]; of 36 enrolled) of the same compound?
A: 2 subjects

Q: What about the “drug-related TEAE palpitations” value ([2]; of 36 enrolled) of the same compound?
A: 2 subjects

Q: And the “drug-related TEAE urticaria” value ([2]; of 36 enrolled)?
A: 2 subjects

Q: What about the “drug-related TEAE ventricular extrasystoles” value ([2]; of 36 enrolled) of the same compound?
A: 2 subjects

Q: And the “subjects permanently discontinued study drug due to a TEAE” value ([2]; of 36 enrolled)?
A: 5 subjects

Q: And the “subjects with TEAEs, SOC General disorders and administration site conditions” value ([2]; of 36 enrolled)?
A: 15 subjects

Q: What about the “subjects with TEAEs, SOC Nervous system disorders” value ([2]; of 36 enrolled) of the same compound?
A: 15 subjects

Q: What about the TESAE asthenia ([2]; of 36 enrolled (5.6%)) of the same compound?
A: 2 subjects

Q: What about the “TESAE cardiac failure congestive” value ([2]; of 36 enrolled (5.6%)) of the same compound?
A: 2 subjects

Q: And the TESAE pneumonia ([2]; of 36 enrolled (8.3%))?
A: 3 subjects

Q: And the “TESAEs, SOC Metabolism and nutrition disorders” value ([2]; of 36 enrolled (8.3%))?
A: 4 subjects

Q: And the “related TEAEs, SOC Nervous system disorders” value ([2]; of 36 enrolled (8.3%))?
A: 3 subjects

Q: And the “related TEAEs, SOC Respiratory, thoracic and mediastinal disorders” value ([2]; of 36 enrolled (8.3%))?
A: 3 subjects

Q: And the “related TEAEs, SOC Skin and subcutaneous tissue disorders” value ([2]; of 36 enrolled (8.3%))?
A: 3 subjects

Q: What about the “related TEAEs, SOC cardiac disorders” value ([2]; of 36 enrolled (8.3%)) of the same compound?
A: 5 subjects

Q: What about the TESAE cardiac failure ([2]; of 36 enrolled (11.1%)) of the same compound?
A: 4 subjects

Q: What about the “related TEAEs, SOC Product issues” value ([2]; of 36 enrolled (11.4%)) of the same compound?
A: 4 subjects

Q: And the “TESAEs, SOC Infections and Infestations” value ([2]; of 36 enrolled (22.2%))?
A: 8 subjects

Q: And the “TESAEs, SOC cardiac disorders” value ([2]; of 36 enrolled (22.2%))?
A: 8 subjects

Q: And the “subjects with TEAE severity moderate” value ([2]; of 36 enrolled (25.0%))?
A: 9 subjects

Q: And the “subjects with TEAE severity mild” value ([2]; of 36 enrolled (27.8%))?
A: 10 subjects

Q: What about the “subjects with TEAE severity severe” value ([2]; of 36 enrolled (36.1%)) of the same compound?
A: 13 subjects

Q: And the “subjects with TEAEs considered related to the study drug” value ([2]; of 36 enrolled (41.7%))?
A: 15 subjects

Q: And the “subjects with TEAEs, SOC Cardiac disorders” value ([2]; of 36 enrolled (47.2%))?
A: 17 subjects

Q: What about the “subjects with TEAEs, SOC Infections and Infestations” value ([2]; of 36 enrolled (47.2%)) of the same compound?
A: 17 subjects

Q: What about the “subjects with serious TEAEs (TESAEs)” value ([2]; of 36 enrolled (55.6%)) of the same compound?
A: 20 subjects

Q: What about the “subjects with TEAEs” value ([2]; of 36 enrolled (88.9%)) of the same compound?
A: 32 subjects

Q: And the overall safety assessment ([2]; third safety review, as of 4 Nov. 2020)?
A: no safety trends or signals

Q: And the “serious TEAEs considered related” value ([2]; two of 36 enrolled)?
A: 5.6%

From patent US20250064799A1, “ORAL FORMULATIONS OF LEVOSIMENDAN FOR TREATING PULMONARY HYPERTENSION WITH HEART FAILURE WITH PRESERVED EJECTION FRACTION” (Tenax Therapeutics, Inc., priority 2021, published 2025)
